Laboratory results published in patent US20230011869A1 (Hoffmann-La Roche Inc., priority 2018, published 2023).
Structures can show the parent of a compound that is named as a salt.

The molecules below were run on Acinetobacter baumannii ATCC17978 (assay: Antimicrobial susceptibility testing: 90% growth inhibitory concentration (IC90) determination, Iso-Sensitest broth). Conditions: 90% growth inhibitory concentration, Acinetobacter baumannii ATCC17978, Iso-Sensitest broth, OD 600 nm over 16 h; read-out: ATCC17978 IC90.
Type: cell-based
How it was run: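 A. baumannii ATCC17978 grown in Iso-Sensitest broth across 10 compound concentrations at 35±2 °C.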
COc1ccc(-c2cnc3c(Nc4ccc(C(=O)N5CCC(c6nncn6C)CC5)c(C)c4)nccn23)cc1F [Example 357, [4-[[3-(3-fluoro-4-methoxyphenyl)imidazo[1,2-a]pyrazin-8-yl]amino]-2-methylphenyl]-[4-(4-methyl-1,2,4-triazol-3-yl)piperidin-1-yl]methanone] showed an IC90 of 330 nM. In the case of Cc1cc(Nc2nccn3c(-c4ccc(OC(F)F)c(F)c4)cnc23)ccc1C(=O)N1CCC(N)CC1 [Example 362, (4-aminopiperidin-1-yl)-[4-[[3-[4-(difluoromethoxy)-3-fluorophenyl]imidazo[1,2-a]pyrazin-8-yl]amino]-2-methylphenyl]methanone; hy-drochloride], the IC90 is reported as 490 nM. With COc1ccc(-c2cnc3c(Nc4ccc(C(=O)N5CCN(CCO)CC5)c(C)c4)nccn23)cc1 [Example 371, [4-(2-hydroxyethyl)piperazin-1-yl]-[4-[[3-(4-methoxyphenyl)imidazo[1,2-a]pyrazin-8-yl]amino]-2-methylphenyl]methanone] the IC90 was 1200 nM.

Same assay, conditions: Acinetobacter baumannii, ATCC17978, 16 h, read-out: ATCC17978 IC90, 90% growth inhibitory concentration, Acinetobacter baumannii ATCC17978, Iso-Sensitest broth, OD 600 nm over 16 h
With Cc1cc(Nc2nccn3c(-c4ccc(OC(F)F)cc4)cnc23)ccc1C(=O)N1CCC(C(=O)N2C[C@H](O)[C@@H](O)[C@H](O)[C@H]2CO)CC1 [Example 349, [4-[[3-[4-(difluoromethoxy)phenyl]imi-dazo[1,2-a]pyrazin-8-yl]amino]-2-methylphenyl]-[4-[(2R,3R,4R,5S)-3,4,5-trihydroxy-2-(hydroxymethyl)piperidine-1-carbonyl]piperidin-1-yl]methanone] the IC90 was 660 nM. Cc1cc(Nc2nccn3c(-c4ccc(OC(F)F)cc4)cnc23)ccc1C(=O)N1CCC(C(=O)N[C@@H]2[C@@H](O)[C@H](O)[C@@H](CO)O[C@@H]2O)CC1 [Example 350, 1-[4-[[3-[4-(difluoromethoxy)phenyl]imi-dazo[1,2-a]pyrazin-8-yl]amino]-2-methylbenzoyl]-N-[(2S,3R,4R,5S,6R)-2,4,5-trihydroxy-6-(hydroxymethyl)oxan-3-yl]piperidine-4-carboxamide] gave an IC90 of 710 nM. CCNC(=O)CN1CCN(C(=O)c2ccc(Nc3nccn4c(-c5ccc(OC(F)F)cc5)cnc34)cc2C)CC1 [Example 352, 2-[4-[4-[[3-[4-(difluoromethoxy)phenyl]imi-dazo[1,2-a]pyrazin-8-yl]amino]-2-methylbenzoyl]piperazin-1-yl]-N-ethylacetamide] gave an IC90 of 220 nM. With Cc1cc(Nc2nccn3c(-c4ccc(OC(F)F)cc4)cnc23)ccc1C(=O)N1CCC(Cn2ccnc2)CC1 [Example 353, [4-[[3-[4-(difluoromethoxy)phenyl]imi-dazo[1,2-a]pyrazin-8-yl]amino]-2-methylphenyl]-[4-(imidazol-1-ylmethyl)piperidin-1-yl]methanone] the IC90 was 240 nM. With Cc1cc(Nc2nccn3c(-c4ccc(OC(F)F)cc4)cnc23)ccc1C(=O)N1CCC(Cn2cnnc2)CC1 [Example 354, [4-[[3-[4-(difluoromethoxy)phenyl]imi-dazo[1,2-a]pyrazin-8-yl]amino]-2-methylphenyl]-[4-(1,2,4-triazol-4-ylmethyl)piperidin-1-yl]methanone] the IC90 was 240 nM. With Cc1cc(Nc2nccn3c(-c4ccc(OC(F)F)cc4)cnc23)ccc1C(=O)N1CCN(CCN2CCCCC2)CC1 [Example 355, [4-[[3-[4-(difluoromethoxy)phenyl]imi-dazo[1,2-a]pyrazin-8-yl]amino]-2-methylphenyl]-[4-(2-piperidin-1-ylethyl)piperazin-1-yl]methanone] the IC90 was 260 nM. Cc1cc(Nc2nccn3c(-c4ccc(OC(F)F)cc4)cnc23)ccc1C(=O)N1CCC(c2nccn2C)CC1 [Example 356, [4-[[3-[4-(difluoromethoxy)phenyl]imi-dazo[1,2-a]pyrazin-8-yl]amino]-2-methylphenyl]-[4-(1-methylimidazol-2-yl)piperidin-1-yl]methanone] gave an IC90 of 300 nM. CNCCNC(=O)C1CCN(C(=O)c2ccc(Nc3nccn4c(-c5ccc(OC(F)F)cc5)cnc34)cc2C)CC1 [Example 358, 1-[4-[[3-[4-(difluoromethoxy)phenyl]imi-dazo[1,2-a]pyrazin-8-yl]amino]-2-methylbenzoyl]-N-[2-(methylamino)ethyl]piperidine-4-carboxamide; hydrochloride] showed an IC90 of 340 nM. With Cc1cc(Nc2nccn3c(-c4ccc(OC(F)F)cc4)cnc23)ccc1C(=O)N1CCC2(CCNCC2)CC1 [Example 359, 3,9-diazaspiro[5.5]undecan-3-yl-[4-[[3-[4-(difluoromethoxy)phenyl]imi-dazo[1,2-a]pyrazin-8-yl]amino]-2-methylphenyl]methanone; hy-drochloride] the IC90 was 410 nM. With Cc1cc(Nc2nccn3c(-c4ccc(OC(F)F)cc4)cnc23)ccc1C(=O)N1CCC2(CC1)CNC2 [Example 360, 2,7-diazaspiro[3.5]nonan-7-yl-[4-[[3-[4-(difluoromethoxy)phenyl]imi-dazo[1,2-a]pyrazin-8-yl]amino]-2-methylphenyl]methanone; hy-drochloride] the IC90 was 420 nM. In the case of Cc1cc(Nc2nccn3c(-c4ccc(OC(F)F)cc4)cnc23)ccc1C(=O)N1CCC(N)CC1 [Example 361, (4-aminopiperidin-1-yl)-[4-[[3-[4-(difluoromethoxy)phenyl]imi-dazo[1,2-a]pyrazin-8-yl]amino]-2-methylphenyl]methanone; hy-drochloride], the IC90 is reported as 450 nM. Work on CCc1cc(Nc2nccn3c(-c4ccc(OC(F)F)cc4)cnc23)ccc1C(=O)N1CCC(CN)CC1 [Example 363, [4-(aminomethyl)piperidin-1-yl]-[4-[[3-[4-(difluoromethoxy)phenyl]imi-dazo[1,2-a]pyrazin-8-yl]amino]-2-ethylphenyl]methanone; hydro-chloride] yielded an IC90 of 520 nM. For Cc1cc(Nc2nccn3c(-c4ccc(OC(F)F)cc4)cnc23)ccc1C(=O)N1CCOC(CN)C1 (stereo not drawn) [Example 364, [2-(aminomethyl)morpholin-4-yl]-[4-[[3-[4-(difluoromethoxy)phenyl]imi-dazo[1,2-a]pyrazin-8-yl]amino]-2-methylphenyl]methanone; hy-drochloride], the IC90 was 530 nM. Cc1cc(Nc2nccn3c(-c4ccc(OC(F)F)cc4)cnc23)ccc1C(=O)N1CCC2(COC2)C1 [Example 365, [4-[[3-[4-(difluoromethoxy)phenyl]imi-dazo[1,2-a]pyrazin-8-yl]amino]-2-methylphenyl]-(2-oxa-7-azaspiro[3.4]octan-7-yl)methanone] was tested, and the IC90 was 550 nM. In the case of Cc1cc(Nc2nccn3c(-c4ccc(OC(F)F)cc4)cnc23)ccc1C(=O)N1CCC(N2CCOCC2)CC1 [Example 366, [4-[[3-[4-(difluoromethxoy)phenyl]imi-dazo[1,2-a]pyrazin-8-yl]amino]-2-methylphenyl]-(4-morpholin-4-ylpiperidin-1-yl)methanone], the IC90 is reported as 640 nM. CCN1CCN(C2CCN(C(=O)c3ccc(Nc4nccn5c(-c6ccc(OC(F)F)cc6)cnc45)cc3C)CC2)CC1 [Example 367, [4-[[3-[4-(difluoromethoxy)phenyl]imi-dazo[1,2-a]pyrazin-8-yl]amino]-2-methylphenyl]-[4-(4-ethylpiperazin-1-yl)piperidin-1-yl]methanone] was tested, and the IC90 was 690 nM. Cc1cc(Nc2nccn3c(-c4ccc(OC(F)F)cc4)cnc23)ccc1C(=O)N1CCCC(N)C1 (stereo not drawn) [Example 368, (3-aminopiperidin-1-yl)-[4-[[3-[4-(difluoromethoxy)phenyl]imi-dazo[1,2-a]pyrazin-8-yl]amino]-2-methylphenyl]methanone; hy-drochloride] gave an IC90 of 810 nM. CCN(CC)C(=O)N1CCN(C(=O)c2ccc(Nc3nccn4c(-c5ccc(OC(F)F)cc5)cnc34)cc2C)CC1 [Example 369, 4-[4-[[3-[4-(difluoromethoxy)phenyl]imi-dazo[1,2-a]pyrazin-8-yl]amino]-2-methylbenzoyl]-N,N-diethylpiperazine-1-carboxamide] showed an IC90 of 890 nM. Molecule Cc1cc(Nc2nccn3c(-c4ccc(OC(F)F)cc4)cnc23)ccc1C(=O)N1CCC2(CCOCC2)C1 [Example 370, [4-[[3-[4-(difluoromethoxy)phenyl]imi-dazo[1,2-a]pyrazin-8-yl]amino]-2-methylphenyl]-(8-oxa-2-azaspiro[4.5]decan-2-yl)methanone] has an IC90 of 1100 nM. Work on Cc1cc(Nc2nccn3c(-c4ccc(OC(F)F)cc4)cnc23)ccc1C(=O)N1CCN(CC(=O)N(C)C)CC1 [Example 372, 2-[4-[4-[[3-[4-(difluoromethoxy)phenyl]imi-dazo[1,2-a]pyrazin-8-yl]amino]-2-methylbenzoyl]piperazin-1-yl]-N,N-dimethylacetamide] yielded an IC90 of 1200 nM. In the case of CNC1CCN(C(=O)c2ccc(Nc3nccn4c(-c5ccc(OC(F)F)cc5)cnc34)cc2C)CC1 [Example 374, [4-[[3-[4-(difluoromethoxy)phenyl]imi-dazo[1,2-a]pyrazin-8-yl]amino]-2-methylphenyl]-[4-(methylamino)piperidin-1-yl]methanone; hydrochloride], the IC90 is reported as 1700 nM. Molecule Cc1cc(Nc2nccn3c(-c4ccc(OC(F)F)cc4)cnc23)ccc1C(=O)N1CCC(C(N)=O)(N2CCN(C)CC2)CC1 [Example 375, 1-[4-[[3-[4-(difluoromethoxy)phenyl]imi-dazo[1,2-a]pyrazin-8-yl]amino]-2-methylbenzoyl]-4-(4-methylpiperazin-1-yl)piperidine-4-carboxamide] has an IC90 of 2000 nM. In the case of Cc1cc(Nc2nccn3c(-c4ccc(OC(F)F)cc4)cnc23)ccc1C(=O)N1CCC2(CCCNC2)CC1 [Example 376, 2,9-diazaspiro[5.5]undecan-9-yl-[4-[[3-[4-(difluromethoxy)phenyl]imi-dazo[1,2-a]pyrazin-8-yl]amino]-2-methylphenyl]methanone; hy-drochloride], the IC90 is reported as 2000 nM. With Cc1cc(Nc2nccn3c(-c4ccc(OC(F)F)cc4)cnc23)ccc1C(=O)N1CCN(CC(=O)N2CCCC2)CC1 [Example 377, 2-[4-[4-[[3-[4-(difluoromethoxy)phenyl]imi-dazo[1,2-a]pyrazin-8-yl]amino]-2-methylbenzoyl]piperazin-1-yl]-1-pyrrolidin-1-ylethanone] the IC90 was 2300 nM.
